From ChEMBL document CHEMBL1201862, “PubChem BioAssay data set” (2004)
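Interpolation was linear, between the two tested concentrations surrounding the appropriate level; five concentrations were tested over 48 hours in 96-well plates. GI50 marks 50% less growth.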 Activity calls are given as the source filed them. Cut-off read from the data, not from the text of the source: active = GI50 up to about 1.1 µM and inactive = higher.

Assays:
Assay in all cases: growth of human tumour cells (NCI), 48 h
EKVX = system: EKVX
Hs-578T = system: Hs-578T
UACC-62 = system: UACC-62
HL-60 = system: HL-60
IGROV-1 = system: IGROV-1
OVCAR-3 = system: OVCAR-3
A549 = system: A549
NCI-H522 = system: NCI-H522
K562 = system: K562
NCI-H23 = system: NCI-H23
UO-31 = system: UO-31
TK-10 = system: TK-10
NCI-H226 = system: NCI-H226
SK-MEL-5 = system: SK-MEL-5
CAKI-1 = system: CAKI-1
A498 = system: A498
MDA-N = system: MDA-N
COLO 205 = system: COLO 205
SNB-75 = system: SNB-75

Row | SMILES | GI50 (EKVX) | GI50 (Hs-578T) | GI50 (UACC-62) | GI50 (HL-60) | GI50 (IGROV-1) | GI50 (OVCAR-3) | GI50 (A549) | GI50 (NCI-H522) | GI50 (K562) | GI50 (NCI-H23) | GI50 (UO-31) | GI50 (TK-10) | GI50 (NCI-H226) | GI50 (SK-MEL-5) | GI50 (CAKI-1) | GI50 (A498) | GI50 (MDA-N) | GI50 (COLO 205) | GI50 (SNB-75)
1 | COC(=O)c1sc2c(c1C(=O)OC)/C(=N/C(C)(C)C)S/C2=N\C(C)(C)C | 16.3 µM (inactive) | 25.7 µM (inactive) | 17 µM (inactive) | 13.6 µM (inactive) | 19.6 µM (inactive) | 20.3 µM (inactive) | 17.4 µM (inactive) | 18.5 µM (inactive) | 18.5 µM (inactive) | 18.8 µM (inactive) | 0.14 µM (active) | 17.2 µM (inactive) | 16.3 µM (inactive) | 14.8 µM (inactive) | 17.2 µM (inactive) | 17.8 µM (inactive) | 17.9 µM (inactive) | 17.4 µM (inactive) | 
2 | CC(NC(=O)/C(=C/c1ccccc1O)NC(=O)c1ccccc1)C(=O)O (configuration not stated) | 18.8 µM (inactive) | 17.4 µM (inactive) | 26 µM (inactive) | > 100 µM (inactive) | 17.9 µM (inactive) |  | 43.1 µM (inactive) | 18.5 µM (inactive) | > 100 µM (inactive) | > 100 µM (inactive) | 17.5 µM (inactive) | 44.3 µM (inactive) | 14 µM (inactive) | 55.2 µM (inactive) | 19 µM (inactive) | > 100 µM (inactive) | 8.13 µM (inactive) | > 100 µM (inactive) | 15.4 µM (inactive)
3 | Clc1ccccc1-c1nc2cc(C34CC5CC(CC(C5)C3)C4)ccc2[nH]1 | 29.1 µM (inactive) | 28.8 µM (inactive) | 13.9 µM (inactive) | 23.7 µM (inactive) | 17.3 µM (inactive) |  | 11.4 µM (inactive) | 17 µM (inactive) | 27.5 µM (inactive) | 14.4 µM (inactive) | 14.7 µM (inactive) | 19.1 µM (inactive) | 25.4 µM (inactive) | 32.7 µM (inactive) | 31.4 µM (inactive) | 25 µM (inactive) | 44 µM (inactive) | 34 µM (inactive) | 5.71 µM (inactive)
4 | NC(=O)NCCSC1CCCCC1O (configuration not stated) | > 100 µM (inactive) | > 100 µM (inactive) | > 100 µM (inactive) |  | > 100 µM (inactive) | > 100 µM (inactive) | > 100 µM (inactive) | > 100 µM (inactive) | > 100 µM (inactive) | > 100 µM (inactive) | > 100 µM (inactive) | > 100 µM (inactive) | > 100 µM (inactive) | > 100 µM (inactive) | > 100 µM (inactive) | > 100 µM (inactive) | > 100 µM (inactive) | > 100 µM (inactive) | > 100 µM (inactive)
5 | COC(=O)[C@@H]1Cc2cc(O)c(O)cc2C2(CCN(C)CC2)O1 | > 10 µM (inactive) | > 10 µM (inactive) | > 10 µM (inactive) | > 10 µM (inactive) | > 10 µM (inactive) | > 10 µM (inactive) | > 10 µM (inactive) | > 10 µM (inactive) |  | > 10 µM (inactive) |  | > 10 µM (inactive) | > 10 µM (inactive) | > 10 µM (inactive) | > 10 µM (inactive) | > 10 µM (inactive) | > 10 µM (inactive) | > 10 µM (inactive) | > 10 µM (inactive)
6 | C[C@]12CC[C@H](O)CC1=CC[C@@H]1[C@@H]2CC[C@]2(C)c3nc(Cl)ccc3C[C@@H]12 | 11.4 µM (inactive) | 35.2 µM (inactive) | 11.5 µM (inactive) | 40.1 µM (inactive) | 61.5 µM (inactive) | 27.3 µM (inactive) | 25 µM (inactive) | 49.8 µM (inactive) | 5.78 µM (inactive) | 24.6 µM (inactive) | 7.52 µM (inactive) | > 56.8 µM (inactive) | > 100 µM (inactive) | > 46.2 µM (inactive) | > 100 µM (inactive) | > 100 µM (inactive) | 12.2 µM (inactive) | > 100 µM (inactive) | 25 µM (inactive)
7 | C#CC1NC(=O)C1N(CC)CC (configuration not stated) | > 100 µM (inactive) | > 100 µM (inactive) | > 100 µM (inactive) | > 100 µM (inactive) | > 100 µM (inactive) | > 100 µM (inactive) |  | > 100 µM (inactive) | > 100 µM (inactive) | > 100 µM (inactive) | > 100 µM (inactive) | > 100 µM (inactive) | > 100 µM (inactive) | > 100 µM (inactive) | 86.5 µM (inactive) | > 100 µM (inactive) | > 100 µM (inactive) | > 100 µM (inactive) | 14.6 µM (inactive)
8 | NC(=O)c1csc(C2(O)COC(CO)C2O)n1 (configuration not stated) | > 100 µM (inactive) | > 100 µM (inactive) | > 100 µM (inactive) |  | > 100 µM (inactive) | > 100 µM (inactive) | > 100 µM (inactive) | > 100 µM (inactive) |  | > 100 µM (inactive) | > 100 µM (inactive) | > 100 µM (inactive) | > 100 µM (inactive) | > 100 µM (inactive) | > 100 µM (inactive) | > 100 µM (inactive) | > 100 µM (inactive) | > 100 µM (inactive) | > 100 µM (inactive)
9 | COc1ccc(/C=c2/[nH]c(=O)/c(=C\c3ccc(OCc4ccccc4)cn3)[nH]c2=O)cc1 | > 100 µM (inactive) | 57.5 µM (inactive) | > 100 µM (inactive) | 6.93 µM (inactive) |  | > 100 µM (inactive) | 50.2 µM (inactive) | 71.4 µM (inactive) | 31.1 µM (inactive) | > 100 µM (inactive) | 0.889 µM (active) | 71.9 µM (inactive) | 67.9 µM (inactive) | 50.2 µM (inactive) | > 100 µM (inactive) | 33 µM (inactive) | 19.8 µM (inactive) | 32.2 µM (inactive) | 19.3 µM (inactive)
10 | Fc1ccc(C(OCCN2CCN(CCCCl)CC2)c2ccc(F)cc2)cc1 | 41.1 µM (inactive) | 29.9 µM (inactive) | 19.1 µM (inactive) | 0.391 µM (active) | 26 µM (inactive) | 25.8 µM (inactive) | 35.5 µM (inactive) | 18.7 µM (inactive) | 15.3 µM (inactive) | 22.3 µM (inactive) | 18.4 µM (inactive) | 36.7 µM (inactive) | 20.5 µM (inactive) | 18 µM (inactive) | 31 µM (inactive) | 20.9 µM (inactive) | 20.7 µM (inactive) | 16.3 µM (inactive) | 
11 | COc1ccc(/C=C(\NC(=O)c2ccccc2)C(=O)NN(C)c2ccnc3cc(Cl)ccc23)cc1OC | 50.7 µM (inactive) | 52.8 µM (inactive) |  |  | 17.2 µM (inactive) | 27.6 µM (inactive) | 33 µM (inactive) | 21.8 µM (inactive) | 18.9 µM (inactive) | 24 µM (inactive) | 28.2 µM (inactive) | 36.7 µM (inactive) | 19.1 µM (inactive) | 23.6 µM (inactive) | 28.8 µM (inactive) | > 100 µM (inactive) | 24.5 µM (inactive) | 24.2 µM (inactive) | 32.2 µM (inactive)
12 | CN(C)c1ccc(/C=C(\NC(=O)c2ccccc2)C2NC(Cc3c[nH]c4ccccc34)C(=O)O2)cc1 (configuration not stated) | 8.99 µM (inactive) | 11.2 µM (inactive) | > 82.6 µM (inactive) | 6.65 µM (inactive) | 5.37 µM (inactive) | 60.8 µM (inactive) | 5.16 µM (inactive) | 3.46 µM (inactive) | 10.9 µM (inactive) | 14 µM (inactive) | 17.3 µM (inactive) |  | > 100 µM (inactive) | 8.85 µM (inactive) | > 59 µM (inactive) | > 93.1 µM (inactive) | 34.8 µM (inactive) | 4.06 µM (inactive) | 39.4 µM (inactive)
13 | C=C(CCOC)CCC1CCCCC(CN(C)C)C1=O (configuration not stated) | > 100 µM (inactive) | > 100 µM (inactive) | > 100 µM (inactive) | > 100 µM (inactive) | > 100 µM (inactive) | > 100 µM (inactive) | > 100 µM (inactive) | > 100 µM (inactive) | > 100 µM (inactive) | > 100 µM (inactive) | > 100 µM (inactive) |  | > 100 µM (inactive) | > 100 µM (inactive) | > 100 µM (inactive) | > 100 µM (inactive) | > 100 µM (inactive) | > 100 µM (inactive) | > 100 µM (inactive)
14 | C[C@@H]1CC[C@H]2[C@H](C)C(OC3O[C@@H]4O[C@@]5(C)CC[C@H]6[C@H](C)CC[C@@H]([C@@H]3C)[C@@]46O5)O[C@@H]3O[C@@]4(C)CC[C@@H]1[C@]32O4 (some centres not stated) | > 100 µM (inactive) | > 100 µM (inactive) | > 100 µM (inactive) | > 100 µM (inactive) |  | > 100 µM (inactive) | > 100 µM (inactive) | > 100 µM (inactive) | > 100 µM (inactive) | > 100 µM (inactive) |  | > 100 µM (inactive) | > 100 µM (inactive) | > 100 µM (inactive) | > 100 µM (inactive) | > 100 µM (inactive) | > 100 µM (inactive) | > 100 µM (inactive) | > 100 µM (inactive)
15 | [O-][Cl+3]([O-])([O-])[O-].[O-][Cl+3]([O-])([O-])[O-].c1ccn2c(N3CCOCC3)[n+]3c4ccccc4[n+]4c(N5CCOCC5)n5ccccc5c4c3c2c1 | > 100 µM (inactive) | 33.7 µM (inactive) | > 100 µM (inactive) | 71.6 µM (inactive) | 66.2 µM (inactive) | > 100 µM (inactive) | > 100 µM (inactive) | > 100 µM (inactive) | > 100 µM (inactive) | > 100 µM (inactive) |  | > 100 µM (inactive) | 79.4 µM (inactive) | 34 µM (inactive) | > 100 µM (inactive) | > 100 µM (inactive) | 63.5 µM (inactive) | 49.9 µM (inactive) | 28.5 µM (inactive)
